Measurements as given in PubChem BioAssay AID2060888 (Molecular Pharmacology Branch, DTP, NCI, 2025).
Where “and” joins values, the source holds several entries; their conditions need not be identical. Equal values may be shown once. Values belong to the molecule of their own block, whether it stands above or below them.

Test system: 695427-040-R-J1-PDC complex spheroid viability
Experiment: Anticancer human tumor 695427-040-R-J1-PDC patient-derived colon adenocarcinoma cell line growth inhibition [RAS]
Settings: for viability, T/C: stronger effect = lower value
In short: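 Agents were tested in combination matrices in half-log decrements from a top concentration at or near clinical Cmax (10 microM if undetermined). Targets were multi-cell spheroids of tumour lines plus HUVEC and MSC stromal cells.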
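Further: viability read after seven days of drug exposure.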
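Wherever viability, T/C is given: 100% = DMSO vehicle control viability.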

IC50 (curve of first compound, second compound 0.0316 µM): > 300 nM
IC50 (curve of first compound, second compound 0.1 µM): > 300 nM
IC50 (curve of first compound, second compound 0.316 µM): > 300 nM
IC50 (curve of first compound, second compound 1 µM): > 300 nM
IC50 (curve of first compound, second compound 3.16 µM): 3.19 nM
IC50 (curve of first compound, second compound 10 µM): < 0.949 nM
Compound: CC1(C)CCC(Nc2ncc(C(F)(F)F)c(-c3c[nH]c4c(P(C)(C)=O)c(C#N)ccc34)n2)CN1 (stereo unspecified) + C#Cc1c(F)ccc2cc(O)cc(-c3ncc4c(N5CC6CCC(C5)N6)nc(OCC56CCCN5CC(F)C6)nc4c3F)c12
viability, T/C (second compound 0.0316 µM, first compound 0.000949 µM): 104%
viability, T/C (second compound 0.0316 µM, first compound 0.003 µM): 91.6%
viability, T/C (second compound 0.0316 µM, first compound 0.00949 µM): 84.4%
viability, T/C (second compound 0.0316 µM, first compound 0.03 µM): 79%
viability, T/C (second compound 0.0316 µM, first compound 0.0949 µM): 84.5%
viability, T/C (second compound 0.0316 µM, first compound 0.3 µM): 80.3%
viability, T/C (second compound 0.1 µM, first compound 0.000949 µM): 101%
viability, T/C (second compound 0.1 µM, first compound 0.003 µM): 87.8%
viability, T/C (second compound 0.1 µM, first compound 0.00949 µM): 84.3%
viability, T/C (second compound 0.1 µM, first compound 0.03 µM): 88.6%
viability, T/C (second compound 0.1 µM, first compound 0.0949 µM): 79%
viability, T/C (second compound 0.1 µM, first compound 0.3 µM): 73.2%
viability, T/C (second compound 0.316 µM, first compound 0.000949 µM): 87.2%
viability, T/C (second compound 0.316 µM, first compound 0.003 µM): 89.7%
viability, T/C (second compound 0.316 µM, first compound 0.00949 µM): 99.2%
viability, T/C (second compound 0.316 µM, first compound 0.03 µM): 74%
viability, T/C (second compound 0.316 µM, first compound 0.0949 µM): 76.8%
viability, T/C (second compound 0.316 µM, first compound 0.3 µM): 70.4%
viability, T/C (second compound 1 µM, first compound 0.000949 µM): 67.7%
viability, T/C (second compound 1 µM, first compound 0.003 µM): 64.5%
viability, T/C (second compound 1 µM, first compound 0.00949 µM): 59.9%
viability, T/C (second compound 1 µM, first compound 0.03 µM): 62.5%
viability, T/C (second compound 1 µM, first compound 0.0949 µM): 67.7%
viability, T/C (second compound 1 µM, first compound 0.3 µM): 57.8%
viability, T/C (second compound 3.16 µM, first compound 0.000949 µM): 66.8%
viability, T/C (second compound 3.16 µM, first compound 0.003 µM): 49.2%
viability, T/C (second compound 3.16 µM, first compound 0.00949 µM): 51.9%
viability, T/C (second compound 3.16 µM, first compound 0.03 µM): 48.6%
viability, T/C (second compound 3.16 µM, first compound 0.0949 µM): 48%
viability, T/C (second compound 3.16 µM, first compound 0.3 µM): 43.5%
viability, T/C (second compound 10 µM, first compound 0.000949 µM): 37.4%
viability, T/C (second compound 10 µM, first compound 0.003 µM): 39.2%
viability, T/C (second compound 10 µM, first compound 0.00949 µM): 43.2%
viability, T/C (second compound 10 µM, first compound 0.03 µM): 35.3%
viability, T/C (second compound 10 µM, first compound 0.0949 µM): 39.3%
viability, T/C (second compound 10 µM, first compound 0.3 µM): 34.3%

IC50 (curve of first compound, second compound 0.000949 µM): 1750 nM
IC50 (curve of first compound, second compound 0.003 µM): 1400 nM
IC50 (curve of first compound, second compound 0.00949 µM): 732 nM
IC50 (curve of first compound, second compound 0.03 µM): 1210 nM
IC50 (curve of first compound, second compound 0.0949 µM): < 31.6 nM
IC50 (curve of first compound, second compound 0.3 µM): < 31.6 nM
Compound: CCC(CC)c1cc(NC2CCC(N)C2)n2nccc2n1 (stereo unspecified) + CCn1c(-c2cc(N3CCN(C)CC3)cnc2C(C)OC)c2c3cc(ccc31)-c1csc(n1)CC(NC(=O)C1CC1C)C(=O)N1CCCC(N1)C(=O)OCC(C)(C)C2
viability, T/C (second compound 0.000949 µM, first compound 0.0316 µM): 104%
viability, T/C (second compound 0.000949 µM, first compound 0.1 µM): 84.6%
viability, T/C (second compound 0.000949 µM, first compound 0.316 µM): 83.7%
viability, T/C (second compound 0.000949 µM, first compound 1 µM): 84.6%
viability, T/C (second compound 0.000949 µM, first compound 3.16 µM): 13.7%
viability, T/C (second compound 0.000949 µM, first compound 10 µM): 12.3%
viability, T/C (second compound 0.003 µM, first compound 0.0316 µM): 92.8%
viability, T/C (second compound 0.003 µM, first compound 0.1 µM): 99.8%
viability, T/C (second compound 0.003 µM, first compound 0.316 µM): 85.1%
viability, T/C (second compound 0.003 µM, first compound 1 µM): 66.4%
viability, T/C (second compound 0.003 µM, first compound 3.16 µM): 9.9%
viability, T/C (second compound 0.003 µM, first compound 10 µM): 10.9%
viability, T/C (second compound 0.00949 µM, first compound 0.0316 µM): 90.3%
viability, T/C (second compound 0.00949 µM, first compound 0.1 µM): 72.1%
viability, T/C (second compound 0.00949 µM, first compound 0.316 µM): 69.9%
viability, T/C (second compound 0.00949 µM, first compound 1 µM): 45.8%
viability, T/C (second compound 0.00949 µM, first compound 3.16 µM): 10.7%
viability, T/C (second compound 0.00949 µM, first compound 10 µM): 12.9%
viability, T/C (second compound 0.03 µM, first compound 0.0316 µM): 51%
viability, T/C (second compound 0.03 µM, first compound 0.1 µM): 56.1%
viability, T/C (second compound 0.03 µM, first compound 0.316 µM): 64.8%
viability, T/C (second compound 0.03 µM, first compound 1 µM): 58.7%
viability, T/C (second compound 0.03 µM, first compound 3.16 µM): 7.23%
viability, T/C (second compound 0.03 µM, first compound 10 µM): 15.1%
viability, T/C (second compound 0.0949 µM, first compound 0.0316 µM): 44.6%
viability, T/C (second compound 0.0949 µM, first compound 0.1 µM): 47.3%
viability, T/C (second compound 0.0949 µM, first compound 0.316 µM): 43.9%
viability, T/C (second compound 0.0949 µM, first compound 1 µM): 41.6%
viability, T/C (second compound 0.0949 µM, first compound 3.16 µM): 11%
viability, T/C (second compound 0.0949 µM, first compound 10 µM): 15.3%
viability, T/C (second compound 0.3 µM, first compound 0.0316 µM): 29.7%
viability, T/C (second compound 0.3 µM, first compound 0.1 µM): 39.4%
viability, T/C (second compound 0.3 µM, first compound 0.316 µM): 45.8%
viability, T/C (second compound 0.3 µM, first compound 1 µM): 27.8%
viability, T/C (second compound 0.3 µM, first compound 3.16 µM): 6.23%
viability, T/C (second compound 0.3 µM, first compound 10 µM): 15.5%

IC50 (curve of compound): > 10000 nM
Compound: C[C@@H](NC(=O)c1ncnc(N)c1Cl)c1ncc(C(=O)Nc2cc(C(F)(F)F)c(Cl)cn2)s1
viability, T/C (compound 0.0316 µM): 105% [middle of 4 runs]
viability, T/C (compound 0.1 µM): 108% [middle of 4 runs]
viability, T/C (compound 0.316 µM): 115% and 99.1% and 103% (2×)
viability, T/C (compound 1 µM): 113% [middle of 4 runs]
viability, T/C (compound 3.16 µM): 99.6% [middle of 4 runs]
viability, T/C (compound 10 µM): 73.2% (2×) and 69.3% and 73.6%
